Data published in BindingDB's records for doi:10.1021/acs.jmedchem.7b01708 (Duquesne University, 2018).

Assays:
[1] = Binding affinity to human RFC expressed in Chinese hamster PC43-10 cells assessed as antiproliferative activity measured as reduction in cell viability after 96 hrs by Cell-Titer Blue assay
[2] = Binding affinity to human PCFT expressed in Chinese hamster R2/PCFT4 cells assessed as antiproliferative activity measured as reduction in cell viability after 96 hrs by Cell-Titer Blue assay
[3] = Binding affinity to human FR-beta receptor expressed in Chinese hamster D4 cells assessed as antiproliferative activity measured as reduction in cell viability after 96 hrs by Cell-Titer Blue assay
[4] = Binding affinity to human FR-alpha receptor expressed in Chinese hamster RT16 cells assessed as antiproliferative activity measured as reduction in cell viability after 96 hrs by Cell-Titer Blue assay
[5] = Binding affinity to human FR-beta receptor expressed in Chinese hamster D4 cells assessed as antiproliferative activity measured as reduction in cell viability after 96 hrs in presence of folic acid by Cell-Titer Blue assay
[6] = Binding affinity to human FR-alpha receptor expressed in Chinese hamster RT16 cells assessed as antiproliferative activity measured as reduction in cell viability after 96 hrs in presence of folic acid by Cell-Titer Blue assay

Nc1nc2[nH]c(CCC#Cc3ccc(C(=O)N[C@@H](CCC(=O)O)C(=O)O)cn3)cc2c(=O)[nH]1
IC50 [1]: > 1000 nM | IC50 [2]: > 1000 nM | IC50 [3]: 839 nM | IC50 [4]: 449 nM | IC50 [5]: > 1000 nM | IC50 [6]: > 1000 nM

Nc1nc2[nH]c(CCCCc3ccc(C(=O)N[C@@H](CCC(=O)O)C(=O)O)cn3)cc2c(=O)[nH]1
IC50 [1]: > 1000 nM | IC50 [2]: > 1000 nM | IC50 [3]: 37 nM | IC50 [4]: 15 nM | IC50 [5]: > 1000 nM | IC50 [6]: > 1000 nM

Nc1nc2[nH]c(CCC#Cc3ccc(C(=O)N[C@@H](CCC(=O)O)C(=O)O)nc3)cc2c(=O)[nH]1
IC50 [1]: > 1000 nM | IC50 [2]: > 1000 nM | IC50 [3]: 19 nM | IC50 [4]: 4.4 nM | IC50 [5]: > 1000 nM | IC50 [6]: > 1000 nM

Nc1nc2[nH]c(CCCCc3cccc(C(=O)N[C@@H](CCC(=O)O)C(=O)O)n3)cc2c(=O)[nH]1
IC50 [1]: > 1000 nM | IC50 [3]: > 1000 nM | IC50 [4]: 186 nM | IC50 [5]: > 1000 nM | IC50 [6]: > 1000 nM

Nc1nc2[nH]c(CCCCc3ccc(C(=O)N[C@@H](CCC(=O)O)C(=O)O)nc3)cc2c(=O)[nH]1
IC50 [1]: > 1000 nM | IC50 [2]: 58 nM

Nc1nc2[nH]c(CCC#Cc3cccc(C(=O)N[C@@H](CCC(=O)O)C(=O)O)n3)cc2c(=O)[nH]1
IC50 [1]: > 1000 nM | IC50 [2]: > 1000 nM | IC50 [3]: > 1000 nM | IC50 [4]: > 1000 nM | IC50 [5]: > 1000 nM | IC50 [6]: > 1000 nM

C#CCC(Cc1cnc2nc(N)nc(N)c2n1)c1ccc(C(=O)N[C@@H](CCC(=O)O)C(=O)O)cc1 (stereo partly specified) [CHEBI:71223]
IC50 [1]: 0.69 nM | IC50 [2]: 57 nM | IC50 [4]: 168 nM | IC50 [6]: > 1000 nM

Nc1nc2[nH]c(CCCCc3ccc(C(=O)N[C@@H](CCC(=O)O)C(=O)O)cc3)cc2c(=O)[nH]1 [N-{4-[4-(2-Amino-4-oxo-4,7-dihydro-3H-pyrrolo[2,3-d]pyrimidin-6-yl)butyl]benzoyl}-L-glutamic Acid]
IC50 [1]: > 1000 nM
